Measurements reported in patent publication US6737383B1, “Herbicidal oxadiazolidines” (priority 1999, dated 2004).

Tests used:
[1] = system: bedstraw; assay: Test B pre/postemergence bedstraw; type: in vivo, Galium aparine
In short: (§1)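 Response is a visual 0-to-10 score relative to untreated plants, where 0 means no effect and 10 means complete control, taken twelve to sixteen days after application. Treatments went onto soil at planting and onto foliage of 1- to 4-leaf plants, using a surfactant-containing non-phytotoxic solvent.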

[2] = system: blackgrass; assay: Test B pre/postemergence blackgrass; type: in vivo, Alopecurus myosuroides
In short: as §1

[3] = system: surinam grass; assay: Test B pre/postemergence surinam grass; type: in vivo, Brachiaria decumbens
In short: as §1

[4] = system: cocklebur; assay: Test B pre/postemergence cocklebur; type: in vivo, Xanthium strumarium
In short: as §1

[5] = system: corn; assay: Test B pre/postemergence corn; type: in vivo, Zea mays
In short: as §1

[6] = system: giant foxtail; assay: Test B pre/postemergence giant foxtail; type: in vivo, Setaria faberii
In short: as §1

[7] = system: morningglory; assay: Test B pre/postemergence morningglory; type: in vivo, Ipomoea hederacea
In short: as §1

[8] = system: pigweed; assay: Test B pre/postemergence pigweed; type: in vivo, Amaranthus retroflexus
In short: as §1

[9] = system: rape; assay: Test B pre/postemergence rape; type: in vivo, Brassica napus
In short: as §1

[10] = system: soybean; assay: Test B pre/postemergence soybean; type: in vivo, Glycine max
In short: as §1

[11] = system: sugar beet; assay: Test B pre/postemergence sugar beet; type: in vivo, Beta vulgaris
In short: as §1

[12] = system: velvetleaf; assay: Test B pre/postemergence velvetleaf; type: in vivo, Abutilon theophrasti
In short: as §1

[13] = system: wheat; assay: Test B pre/postemergence wheat; type: in vivo, Triticum aestivum
In short: as §1

[14] = system: wild oat; assay: Test B pre/postemergence wild oat; type: in vivo, Avena fatua
In short: as §1

[15] = system: rice; assay: Test B flood test rice; type: in vivo, Oryza sativa
In short: (§2)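 Plants were grown to the 2-leaf stage before treatment with test chemical, then held in a greenhouse for twelve to sixteen days. Injury was visually rated against untreated controls on a 0–10 scale, where 0 is no effect and 10 is complete control.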

[16] = system: smallflower flatsedge; assay: Test B flood test smallflower flatsedge; type: in vivo, Cyperus difformis
In short: as §2

[17] = Preemergence, Rate 62 g/ha, scale of 0 to 10 where 0 is no effect and 10 is complete control
[18] = Preemergence, Rate 250 g/ha, scale of 0 to 10 where 0 is no effect and 10 is complete control
[19] = Preemergence, Rate 500 g/ha, scale of 0 to 10 where 0 is no effect and 10 is complete control
[20] = Rate 62 g/ha, Postemergence, scale 0 to 10, 0 no effect, 10 complete control
[21] = Rate 125 g/ha, Postemergence, scale of 0 to 10 where 0 is no effect and 10 is complete control
[22] = Rate 250 g/ha, Postemergence, scale of 0 to 10 where 0 is no effect and 10 is complete control
[23] = Rate 500 g/ha, Postemergence, scale 0 to 10, 0 no effect, 10 complete control
[24] = Rate 125 g/ha, Preemergence, scale of 0 to 10 where 0 is no effect and 10 is complete control
[25] = Rate 62 g/ha, headed Pre-emergence (flood test species), scale 0 to 10 (0 no effect, 10 complete control)
[26] = Rate 125 g/ha, Pre-emergence, flood test species, scale 0 to 10 where 0 is no effect and 10 is complete control
[27] = Rate 250 g/ha, Pre-emergence, flood-test species, scale 0 to 10, 0 is no effect, 10 is complete control
[28] = Rate 500 g/ha, Pre-emergence, flood test species, scale 0 to 10 (0 no effect, 10 complete control)

CC(C)N(C(=O)n1oc(=O)n(C2CCCC2)c1=O)c1ccc(Cl)cc1 [Compound 282]
8: Bedstraw plant response rating [1, 23] | Plant response rating, Blackgrass [2, 19] | Blackgrass plant response rating [2, 23] | Giant foxtail plant response rating [6, 17] | Giant foxtail plant response rating [6, 24] | Redroot pigweed plant response rating [8, 23] | Rape plant response rating [9, 23]
4: Blackgrass plant response rating [2, 18] | Redroot pigweed plant response rating [8, 20] | Plant response rating, Soybean [10, 22] | Soybean plant response rating [10, 23] | S. Flatsedge plant response rating [16, 28]
3: Rape plant response rating [9, 21] | Soybean plant response rating [10, 20] | Soybean plant response rating [10, 21] | Plant response rating, Sugarbeets [11, 19] | Plant response rating, Velvetleaf [12, 22] | Velvetleaf plant response rating [12, 23]
9: Morningglory plant response rating [7, 23] | Plant response rating, Redroot pigweed [8, 19]
0: Bedstraw plant response rating [1, 17] | Blackgrass plant response rating [2, 17] | Blackgrass plant response rating [2, 20] | B. signalgrass plant response rating [3, 17] | B. signalgrass plant response rating [3, 20] | B. signalgrass plant response rating [3, 21] | Plant response rating, B. signalgrass [3, 22] | Plant response rating, Cocklebur [4, 19] | Cocklebur plant response rating [4, 20] | Cocklebur plant response rating [4, 21] | Cocklebur plant response rating [4, 24] | Corn plant response rating [5, 17] | Corn plant response rating [5, 18] | Plant response rating, Corn [5, 19] | Corn plant response rating [5, 20] | Corn plant response rating [5, 21] | Corn plant response rating [5, 24] | Plant response rating, Corn [5, 22] | Corn plant response rating [5, 23] | Giant foxtail plant response rating [6, 20] | Giant foxtail plant response rating [6, 21] | Plant response rating, Giant foxtail [6, 22] | Morningglory plant response rating [7, 17] | Morningglory plant response rating [7, 18] | Plant response rating, Morningglory [7, 19] | Morningglory plant response rating [7, 24] | Rape plant response rating [9, 17] | Rape plant response rating [9, 24] | Soybean plant response rating [10, 17] | Soybean plant response rating [10, 18] | Plant response rating, Soybean [10, 19] | Soybean plant response rating [10, 24] | Sugarbeets plant response rating [11, 17] | Sugarbeets plant response rating [11, 18] | Sugarbeets plant response rating [11, 24] | Velvetleaf plant response rating [12, 17] | Velvetleaf plant response rating [12, 18] | Plant response rating, Velvetleaf [12, 19] | Velvetleaf plant response rating [12, 20] | Velvetleaf plant response rating [12, 21] | Velvetleaf plant response rating [12, 24] | Wheat plant response rating [13, 17] | Wheat plant response rating [13, 18] | Plant response rating, Wheat [13, 19] | Wheat plant response rating [13, 20] | Wheat plant response rating [13, 21] | Wheat plant response rating [13, 24] | Plant response rating, Wheat [13, 22] | Wheat plant response rating [13, 23] | Wild oats plant response rating [14, 17] | Wild oats plant response rating [14, 20] | Wild oats plant response rating [14, 21] | Plant response rating, Wild oats [14, 22] | Wild oats plant response rating [14, 23] | Rice plant response rating [15, 25] | Rice plant response rating [15, 26] | Rice plant response rating [15, 27] | Rice plant response rating [15, 28] | S. Flatsedge plant response rating [16, 25] | S. Flatsedge plant response rating [16, 26]
6: Morningglory plant response rating [7, 20] | Morningglory plant response rating [7, 21] | Redroot pigweed plant response rating [8, 21] | Redroot pigweed plant response rating [8, 24] | Plant response rating, Rape [9, 22] | Sugarbeets plant response rating [11, 21]
10: Giant foxtail plant response rating [6, 18] | Plant response rating, Giant foxtail [6, 19]
1: Blackgrass plant response rating [2, 24] | B. signalgrass plant response rating [3, 24] | Redroot pigweed plant response rating [8, 17]
5: Bedstraw plant response rating [1, 20] | Bedstraw plant response rating [1, 21] | Plant response rating, Blackgrass [2, 22] | Wild oats plant response rating [14, 18]
2: Bedstraw plant response rating [1, 18] | Plant response rating, Bedstraw [1, 19] | Blackgrass plant response rating [2, 21] | B. signalgrass plant response rating [3, 18] | B. signalgrass plant response rating [3, 23] | Plant response rating, Cocklebur [4, 22] | Cocklebur plant response rating [4, 23] | Giant foxtail plant response rating [6, 23] | Plant response rating, Rape [9, 19] | Rape plant response rating [9, 20] | Sugarbeets plant response rating [11, 20] | S. Flatsedge plant response rating [16, 27]
7: Plant response rating, Bedstraw [1, 22] | Plant response rating, B. signalgrass [3, 19] | Plant response rating, Morningglory [7, 22] | Redroot pigweed plant response rating [8, 18] | Plant response rating, Redroot pigweed [8, 22] | Rape plant response rating [9, 18] | Plant response rating, Sugarbeets [11, 22] | Sugarbeets plant response rating [11, 23] | Plant response rating, Wild oats [14, 19]
